Activity calls are given as the source filed them. The calls are words filed in the database; no cut-off is given here.
Experiments:
SH-SY5Y [1] = experiment: Neuroprotective activity against amyloid beta (1 to 42)-induced cell damage in human SH-SY5Y cells assessed as inhibition of ROS level pretreated for 2 hrs followed by amyloid beta (1 to 42) addition and measured after 24 hrs by DCFH-DA staining based fluorescence microscopy analysis; assay type: functional; settings: time 26.0 hrs
Mus musculus [2] = experiment: Cognitive enhancing effect in amyloid beta (1 to 42)-induced ICR mouse model assessed as reduction in escape latency at 0.5 mg/kg, icv measured on day 14 by Morris Water maze method; assay type: functional, organism-based; settings: time 14.0 day
Mus musculus [3] = experiment: Cognitive enhancing effect in amyloid beta (1 to 42)-induced ICR mouse model assessed as reduction in amyloid beta (1 to 42) peptide level in brain administered via icv measured on day 14 by ELISA; assay type: functional, organism-based; settings: dose 0.5-10 mg/kg, time 14.0 day, DDE = dose-dependent effect
Mus musculus [4] = experiment: Cognitive enhancing effect in amyloid beta (1 to 42)-induced ICR mouse model assessed as increase in ACh level in brain at 0.5 to 10, icv measured on day 14 by ELISA; assay type: functional, organism-based; settings: dose 0.5-10 mg/kg, time 14.0 day
Mus musculus [5] = experiment: Cognitive enhancing effect in amyloid beta (1 to 42)-induced ICR mouse model assessed as decrease in IFN-gamma level in brain at 0.5 to 10, icv measured on day 14 by ELISA; assay type: functional, organism-based; settings: dose 0.5-10 mg/kg, time 14.0 day
Mus musculus [6] = experiment: Cognitive enhancing effect in amyloid beta (1 to 42)-induced ICR mouse model assessed as decrease in TNF-alpha level in brain at 0.5 to 10, icv measured on day 14 by ELISA; assay type: functional, organism-based; settings: dose 0.5-10 mg/kg, time 14.0 day
Mus musculus [7] = experiment: Cognitive enhancing effect in amyloid beta (1 to 42)-induced ICR mouse model assessed as reduction in amyloid beta (1 to 42) peptide level in brain at 0.5 to 10 mg/kg, icv measured on day 14 by ELISA; assay type: functional, organism-based; settings: dose 0.5-10 mg/kg
PC-12 [8] = experiment: Neuroprotective activity against H2O2-induced cell damage in rat PC-12 cells at 5 uM pretreated for 2 hrs followed by H2O2 addition and measured after 24 hrs by MTT assay; assay type: functional, cell-based
PC-12 [9] = experiment: Neuroprotective activity against H2O2-induced cell damage in rat PC-12 cells pretreated for 2 hrs followed by H2O2 addition and measured after 24 hrs by MTT assay; assay type: functional, cell-based; settings: dose 2.5-10 µM, time 26.0 hrs, DDE = dose-dependent effect
SH-SY5Y [10] = experiment: Neuroprotective activity against amyloid beta (1 to 42)-induced cell damage in human SH-SY5Y cells pretreated for 2 hrs followed by amyloid beta (1 to 42) addition and measured after 24 hrs by MTT assay; assay type: functional, cell-based; settings: dose 0.5-2 µM, time 26.0 hrs, DDE = dose-dependent effect
Mus musculus [11] = experiment: Cognitive enhancing effect in amyloid beta (1 to 42)-induced ICR mouse model assessed as reduction in latency at 1 mg/kg, icv measured on day 14 by Morris Water maze method; assay type: functional, organism-based
Mus musculus [12] = experiment: Cognitive enhancing effect in amyloid beta (1 to 42)-induced ICR mouse model assessed as reduction in latency at 2.5 mg/kg, icv measured on day 14 by Morris Water maze method; assay type: functional, organism-based
SH-SY5Y [13] = experiment: Neuroprotective activity against GA-induced cell damage in human SH-SY5Y cells pretreated for 2 hrs followed by GA addition and measured after 24 hrs by MTT assay; assay type: functional, cell-based; settings: dose 0.1-5 µM, time 26.0 hrs, DDE = dose-dependent effect

SMILES: CCN(CC)Cc1ccccc1CNC(=O)c1cc(C)cc(NC(=O)c2ccc(F)cc2)c1
- Activity (SH-SY5Y [1]): Active
- Activity (Mus musculus [2]): Active
- Activity (Mus musculus [3]): Dde
- Activity (Mus musculus [4]): Active
- Activity (Mus musculus [5]): Active
- Activity (Mus musculus [6]): Active

SMILES: CCN(CC)Cc1ccccc1CNC(=O)c1cccc(NC(=O)c2ccc(F)cc2)c1
- Activity (Mus musculus [7]): Active
- Activity (PC-12 [8]): Active
- Activity (PC-12 [9]): Dde
- Activity (SH-SY5Y [10]): Dde
- Activity (SH-SY5Y [1]): Active
- Activity (Mus musculus [2]): Active
- Activity (Mus musculus [4]): Active
- Activity (Mus musculus [5]): Active
- Activity (Mus musculus [6]): Active

SMILES: CCCN(CCC)Cc1ccccc1CNC(=O)c1cccc(NC(=O)c2cccs2)c1
- Activity (PC-12 [8]): Active

SMILES: CN(C)Cc1ccccc1CNC(=O)c1cccc(NC(=O)c2cccs2)c1
- Activity (PC-12 [8]): Active

SMILES: CCN(C)C(=O)Oc1cccc([C@H](C)N(C)C)c1
- Activity (Mus musculus [11]): Active
- Activity (Mus musculus [12]): Active

SMILES: CCN(CC)Cc1ccccc1CNC(=O)c1cc(Br)cc(NC(=O)c2ccc(F)cc2)c1
- Activity (SH-SY5Y [13]): Dde

SMILES: CCN(CC)Cc1ccccc1CNC(=O)c1cccc(NC(=O)c2ccc(F)cc2)c1C
- Activity (SH-SY5Y [1]): Active

SMILES: COc1ccc2c3c1O[C@H]1C[C@@H](O)C=C[C@@]31CCN(C)C2
- Activity (Mus musculus [11]): Active
- Activity (Mus musculus [12]): Active

Reference: ChEMBL document CHEMBL5137095, “N-Benzyl Benzamide Derivatives as Selective Sub-Nanomolar Butyrylcholinesterase Inhibitors for Possible Treatment in Advanced Alzheimer's Disease” (J Med Chem, 2022)
